Measurements reported in PubChem BioAssay (NCI).
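A five-concentration, 48-hour dose response in 96-well plates underlies each endpoint, interpolated linearly between surrounding concentrations. GI50: concentration for 50% inhibition of growth. The concentration for full growth arrest is given as TGI.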

Key:
Test in all cases: DTP human tumour cell line panel, 48 h
[1] = system: SR leukemia
[2] = system: RPMI-8226 leukemia
[3] = system: UACC-257 melanoma
[4] = system: CCRF-CEM leukemia
[5] = system: NCI-H23 lung
[6] = system: RXF 393 renal
[7] = system: BT-549 breast
[8] = system: NCI/ADR-RES ovarian
[9] = system: HT29 colon
[10] = system: NCI-H226 lung
[11] = system: MALME-3M melanoma
[12] = system: HCT-15 colon
[13] = system: PC-3 prostate
[14] = system: SN12C renal
[15] = system: TK-10 renal
[16] = system: SNB-19 CNS
[17] = system: SF-539 CNS
[18] = system: OVCAR-4 ovarian
[19] = system: IGROV1 ovarian
[20] = system: U251 CNS
[21] = system: UO-31 renal
[22] = system: OVCAR-3 ovarian
[23] = system: UACC-62 melanoma
[24] = system: NCI-H460 lung
[25] = system: CAKI-1 renal
[26] = system: MDA-MB-468 breast
[27] = system: SF-268 CNS
[28] = system: HL-60(TB) leukemia
[29] = system: M14 melanoma
[30] = system: NCI-H522 lung
[31] = system: HOP-92 NSCLC
[32] = system: MCF7 breast
[33] = system: OVCAR-8 ovarian
[34] = system: HOP-62 NSCLC
[35] = system: HCC-2998 colon
[36] = system: SK-OV-3 ovarian
[37] = system: LOX IMVI melanoma
[38] = system: T-47D breast
[39] = system: SF-295 CNS
[40] = system: DU-145 prostate
[41] = system: SK-MEL-2 melanoma
[42] = system: A549 NSCLC
[43] = system: HCT-116 colon
[44] = system: SK-MEL-28 melanoma
[45] = system: SK-MEL-5 melanoma
[46] = system: K-562 leukemia
[47] = system: SW-620 colon
[48] = system: EKVX NSCLC
[49] = system: 786-0 renal
[50] = system: MDA-MB-231 breast
[51] = system: MDA-MB-435
[52] = system: A498 renal
[53] = system: ACHN renal
[54] = system: COLO 205 colon
[55] = system: KM12 colon
[56] = system: MOLT-4 leukemia
[57] = system: OVCAR-5 ovarian
[58] = system: HS 578T breast
[59] = system: SNB-75 CNS

Q: `COc1cc2oc(-c3cccc(C(=O)Nc4ccc(Cl)cc4)c3)cc(=O)c2c(OCCNC(=O)[C@H](CO)NC(=O)OC(C)(C)C)c1OC` was tested. Which GI50 [1] did it give?
A: 3.01 µM

Q: And the TGI [1]?
A: 18.2 µM

Q: What about the GI50 [2] of the same molecule?
A: 2.85 µM

Q: What about the TGI [2] of the same molecule?
A: > 100 µM

Q: What about the GI50 [3] of the same molecule?
A: 12.6 µM

Q: What about the TGI [3] of the same molecule?
A: 27.8 µM

Q: What about the GI50 [4] of the same molecule?
A: 5.54 µM

Q: And the TGI [4]?
A: > 100 µM

Q: What about the GI50 [5] of the same molecule?
A: 14.9 µM

Q: And the TGI [5]?
A: > 100 µM

Q: And the GI50 [6]?
A: 4.2 µM

Q: And the TGI [6]?
A: 22 µM

Q: And the GI50 [7]?
A: 3.06 µM

Q: And the TGI [7]?
A: 19.9 µM

Q: What about the GI50 [8] of the same molecule?
A: 51.4 µM

Q: And the TGI [8]?
A: > 100 µM

Q: What about the GI50 [9] of the same molecule?
A: 6.92 µM

Q: And the TGI [9]?
A: 57.4 µM

Q: And the GI50 [10]?
A: 13.8 µM

Q: And the TGI [10]?
A: > 100 µM

Q: What about the GI50 [11] of the same molecule?
A: 11 µM

Q: And the TGI [11]?
A: 51.5 µM

Q: And the GI50 [12]?
A: 7.43 µM

Q: What about the TGI [12] of the same molecule?
A: > 100 µM

Q: And the GI50 [13]?
A: 6.82 µM

Q: And the TGI [13]?
A: > 100 µM

Q: And the GI50 [14]?
A: 8.47 µM

Q: What about the TGI [14] of the same molecule?
A: > 100 µM

Q: And the GI50 [15]?
A: 19.9 µM

Q: What about the TGI [15] of the same molecule?
A: > 100 µM

Q: And the GI50 [16]?
A: 28.8 µM

Q: What about the TGI [16] of the same molecule?
A: > 100 µM

Q: What about the GI50 [17] of the same molecule?
A: 12.1 µM

Q: What about the TGI [17] of the same molecule?
A: 45 µM

Q: What about the GI50 [18] of the same molecule?
A: 9.86 µM

Q: And the TGI [18]?
A: > 100 µM

Q: And the GI50 [19]?
A: 10.7 µM

Q: What about the TGI [19] of the same molecule?
A: > 100 µM

Q: And the GI50 [20]?
A: 17.8 µM

Q: What about the TGI [20] of the same molecule?
A: > 100 µM

Q: And the GI50 [21]?
A: 19.9 µM

Q: What about the TGI [21] of the same molecule?
A: > 100 µM

Q: What about the GI50 [22] of the same molecule?
A: 10.8 µM

Q: And the TGI [22]?
A: > 100 µM

Q: What about the GI50 [23] of the same molecule?
A: 20.3 µM

Q: And the TGI [23]?
A: > 100 µM

Q: What about the GI50 [24] of the same molecule?
A: 6.48 µM

Q: And the TGI [24]?
A: > 100 µM

Q: What about the GI50 [25] of the same molecule?
A: 5.8 µM

Q: What about the TGI [25] of the same molecule?
A: > 100 µM

Q: And the GI50 [26]?
A: 13.9 µM

Q: What about the TGI [26] of the same molecule?
A: 35 µM

Q: What about the GI50 [27] of the same molecule?
A: 21.5 µM

Q: And the TGI [27]?
A: > 100 µM

Q: What about the GI50 [28] of the same molecule?
A: 5.41 µM

Q: What about the TGI [28] of the same molecule?
A: 22.1 µM

Q: And the GI50 [29]?
A: 8.53 µM

Q: What about the TGI [29] of the same molecule?
A: 55.6 µM

Q: What about the GI50 [30] of the same molecule?
A: 5.18 µM

Q: What about the TGI [30] of the same molecule?
A: > 100 µM

Q: And the GI50 [31]?
A: 4.24 µM

Q: And the TGI [31]?
A: > 100 µM

Q: What about the GI50 [32] of the same molecule?
A: 10.1 µM

Q: What about the TGI [32] of the same molecule?
A: > 100 µM

Q: What about the GI50 [33] of the same molecule?
A: 5.78 µM

Q: What about the TGI [33] of the same molecule?
A: > 100 µM

Q: What about the GI50 [34] of the same molecule?
A: 16.1 µM

Q: And the TGI [34]?
A: > 100 µM

Q: And the GI50 [35]?
A: 15.5 µM

Q: And the TGI [35]?
A: 74 µM

Q: What about the GI50 [36] of the same molecule?
A: 79.2 µM

Q: And the TGI [36]?
A: > 100 µM

Q: And the GI50 [37]?
A: 3.82 µM

Q: And the TGI [37]?
A: 20.7 µM

Q: And the GI50 [38]?
A: 5.63 µM

Q: What about the TGI [38] of the same molecule?
A: > 100 µM

Q: And the GI50 [39]?
A: 12.4 µM

Q: What about the TGI [39] of the same molecule?
A: 53.2 µM

Q: What about the GI50 [40] of the same molecule?
A: 17.8 µM

Q: What about the TGI [40] of the same molecule?
A: > 100 µM

Q: And the GI50 [41]?
A: 15.4 µM

Q: What about the TGI [41] of the same molecule?
A: > 100 µM

Q: What about the GI50 [42] of the same molecule?
A: 10.5 µM

Q: What about the TGI [42] of the same molecule?
A: > 100 µM

Q: And the GI50 [43]?
A: 6.03 µM

Q: What about the TGI [43] of the same molecule?
A: > 100 µM

Q: What about the GI50 [44] of the same molecule?
A: 9.5 µM

Q: What about the TGI [44] of the same molecule?
A: 28.2 µM

Q: What about the GI50 [45] of the same molecule?
A: 5.48 µM

Q: What about the TGI [45] of the same molecule?
A: 19.6 µM

Q: What about the GI50 [46] of the same molecule?
A: 4.23 µM

Q: What about the TGI [46] of the same molecule?
A: > 100 µM

Q: What about the GI50 [47] of the same molecule?
A: 30.1 µM

Q: And the TGI [47]?
A: > 100 µM

Q: And the GI50 [48]?
A: 9.89 µM

Q: And the TGI [48]?
A: > 100 µM

Q: And the GI50 [49]?
A: 19.7 µM

Q: What about the TGI [49] of the same molecule?
A: > 100 µM

Q: And the GI50 [50]?
A: 4.7 µM

Q: And the TGI [50]?
A: 33.9 µM

Q: And the GI50 [51]?
A: 12.4 µM

Q: What about the TGI [51] of the same molecule?
A: 42.6 µM

Q: What about the GI50 [52] of the same molecule?
A: 27.2 µM

Q: What about the TGI [52] of the same molecule?
A: 77.9 µM

Q: What about the GI50 [53] of the same molecule?
A: 19.5 µM

Q: What about the TGI [53] of the same molecule?
A: > 100 µM

Q: And the GI50 [54]?
A: 7.16 µM

Q: And the TGI [54]?
A: 71.6 µM

Q: And the GI50 [55]?
A: 28.7 µM

Q: What about the TGI [55] of the same molecule?
A: > 100 µM

Q: And the GI50 [56]?
A: 3.2 µM

Q: What about the TGI [56] of the same molecule?
A: 21.8 µM

Q: What about the GI50 [57] of the same molecule?
A: 8.01 µM

Q: And the TGI [57]?
A: > 100 µM

Q: And the GI50 [58]?
A: 8.01 µM

Q: And the TGI [58]?
A: 94.6 µM

Q: What about the GI50 [59] of the same molecule?
A: 8.45 µM

Q: And the TGI [59]?
A: > 100 µM
